How the values were obtained:
GSK3β = biological target: T1, GSK3β (Homo sapiens, UniProt P49841); assay: Immunoblot degradation of endogenous GSK3β in HEK293 cells; format: cell-based; settings: 10 nM; for endogenous GSK3β degradation: 2 h, HEK293
T1 construct: PROTAC-mediated degradation of untagged, endogenous GSK3β in HEK293 cells; host or cells: HEK293
Procedure: HEK293, HAP1, HAP1 CRBN KO and SH-SY5Y cells were plated in either 6 cm plates or 6-well plates at varying densities (0.5–0.7 × 10^6 cells per plate or wells), and MEF cells were plated in 10 cm plates (1–1.2 × 10^6 cells per plate) depending on experimental set up in respective culturing condition as described above. Stock solutions of compounds were prepared as 10 mM in DMSO (Sigma–Aldrich). Working dilutions were made up fresh in DMSO and culturing media or differentiation media was refreshed prior to any compound treatments. For mode of action studies, cells were pre-treated with inhibitors for 2 h: 1 µM MG132 (Merck, 474790-5 mg), 1 µM MLN4924 (Merck, 5054770001) or 1 µM GSK3 inhibitor (compound 29), before treating with PROTACs for 2, 4 or 24 h as indicated in figure legends. Cells were washed twice with ice-cold PBS (Gibco), harvested in PBS and pelleted, cells were resuspended in RIPA buffer supplemented with complete EDTA-free protease inhibitor cocktail (Roche,11873580001, 1/10 mL) and phosSTOP (Roche, 04906845001, 1 tablet/10 mL) for 20 min lysis on ice then cleared via centrifugation at 16,000 × g, 4 °C for 20 min. SH-SY5Y cells were lysed in 500 µL ice-cold lysis buffer (25 mM Tris-HCl (pH 7.4), 50 mM NaF, 100 mM NaCl, 1 mM EDTA, 4 mM EGTA, 1% (v/v) Triton-X-100, 0.09% (w/v) sucrose, 10 mM sodium pyrophosphate, 10 mM sodium vanodate, 0.1% (v/v) β-mercaptoethanol, supplemented with complete mini protease inhibitor tablet (Sigma; 1 tablet/ 10 mL buffer)). Lysates were flash frozen, thawed and centrifugated at 16,000 × g, 4 °C for 20 min. Following clearance of lysates, protein concentrations were determined by the BCA assay (Fisher Scientific, 23225) or Bradford assay (Bio-rad). Five to thirty micrograms of protein from lysates were prepared in 4×LDS buffer (Thermo Fisher) and 50 mM dithiothreitol (DTT) denaturated at 95 °C for 5 min. […]

GSK3β-HiBiT = biological target: T2, GSK3β-HiBiT (Homo sapiens, UniProt P49841); assay: Kinetic live cell degradation assay (LgBit transfected GSK3β-HiBiT KI HEK293 cells); format: cell-based
T2 construct: we generated endogenously tagged GSK3β-HiBiT knock-in (KI) HEK293 cells; endogenous in cells; host or cells: GSK3β-HiBiT KI HEK293 cells, transiently transfected with LgBit (Promega)
T2 sequence (P49841 whole entry): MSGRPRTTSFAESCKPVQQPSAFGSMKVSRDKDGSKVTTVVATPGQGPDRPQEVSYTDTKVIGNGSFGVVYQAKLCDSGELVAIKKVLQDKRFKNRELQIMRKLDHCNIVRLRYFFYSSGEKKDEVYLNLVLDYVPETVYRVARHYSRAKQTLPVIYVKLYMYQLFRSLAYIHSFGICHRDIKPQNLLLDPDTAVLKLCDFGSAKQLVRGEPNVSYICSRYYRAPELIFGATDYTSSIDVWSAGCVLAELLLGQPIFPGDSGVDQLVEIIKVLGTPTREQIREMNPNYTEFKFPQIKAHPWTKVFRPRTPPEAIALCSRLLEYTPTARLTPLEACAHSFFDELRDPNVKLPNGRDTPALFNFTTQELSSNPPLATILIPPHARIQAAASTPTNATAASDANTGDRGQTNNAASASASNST
T2 sequence (Q96SW2 whole entry partner): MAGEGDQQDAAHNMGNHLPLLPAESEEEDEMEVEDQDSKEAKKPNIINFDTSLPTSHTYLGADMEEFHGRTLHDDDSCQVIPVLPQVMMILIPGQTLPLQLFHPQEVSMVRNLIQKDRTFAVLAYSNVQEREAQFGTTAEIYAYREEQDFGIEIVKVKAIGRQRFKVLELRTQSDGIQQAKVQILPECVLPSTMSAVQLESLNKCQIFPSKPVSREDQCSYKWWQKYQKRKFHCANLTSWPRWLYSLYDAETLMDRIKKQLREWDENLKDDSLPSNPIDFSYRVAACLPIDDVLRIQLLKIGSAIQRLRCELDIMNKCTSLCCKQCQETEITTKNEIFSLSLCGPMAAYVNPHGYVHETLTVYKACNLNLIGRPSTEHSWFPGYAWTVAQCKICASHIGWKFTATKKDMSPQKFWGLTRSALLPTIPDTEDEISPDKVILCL
Procedure: For kinetic degradation assays, GSK3β-HiBiT KI HEK293 cells were reverse transfected into white bottom opaque 96-well assay plates. Briefly, GSK3β-HiBiT KI HEK293 cell suspension at a density of 2 × 10^6 per mL was prepared in standard culturing media. 10 mL of cell suspension mixed with transfection mix (1 mL of OptiMEM (Gibco) containing 3:1 ratio of FuGENE HD (Promega) and LgBit (Promega)). Then, cells were seeded into 96-well assay plate as a 100 µL cell suspension per well. After 24 h of transfection, the cell media was removed and 90 µL of CO2-independent medium supplemented with 10% FBS (Gibco) and 1:100 dilution of Endurazine (Promega) and incubated for 2.5 h at 37 °C. Test compounds were added onto cells and luminescence signals were monitored and recorded on GloMAX discover plate reader (Promega) in kinetic mode every 5 min. Data were normalised to DMSO conditions and plotted over time and degradation rates were calculated via Michaelis–Menten non-linear fitting analysis using GraphPad Prism (v10.1.2).

T1 sequence (P49841 whole entry): as the sequence (P49841 whole entry) above

Row | SMILES | impact on GSK3 levels (GSK3β; 30 min, HEK cells) | endogenous GSK3β degradation (GSK3β) | maximal degradation rate (λmax) (GSK3β-HiBiT; live cell, Michaelis-Menten fit) | degradation of GSK3β in live cells (GSK3β-HiBiT; 10 nM, after 2 h)
1 | Cn1nc(N2CCC(=O)NC2=O)c2ccc(CN3CCN(Cc4ccc(-c5cn(-c6ccc(-c7cn8nccc(C(=O)Nc9cnccc9N9CCOCC9)c8n7)cc6)nn5)nc4)CC3)cc21 [compound 24] | little impact | almost complete removal | ~ 1.0 h^−1 | –
2 | Cn1nc(N2CCC(=O)NC2=O)c2ccc(CN3CCN(CCCc4cn(-c5ccc(-c6cn7nccc(C(=O)Nc8cnccc8N8CCOCC8)c7n6)cc5)nn4)CC3)cc21 [compound 26] | – | almost complete | – | almost complete degradation

From paper PMC12501029, “Discovery of a CNS active GSK3 degrader using orthogonally reactive linker screening” (Nature Communications, 2025)
